The structures appear in SMILES notation. pKi: −log10 of the molar value.

The target of the experiment is T1, Nuclear receptor ROR-gamma (Homo sapiens, UniProt P51449).
T1 sequence (P51449 whole entry): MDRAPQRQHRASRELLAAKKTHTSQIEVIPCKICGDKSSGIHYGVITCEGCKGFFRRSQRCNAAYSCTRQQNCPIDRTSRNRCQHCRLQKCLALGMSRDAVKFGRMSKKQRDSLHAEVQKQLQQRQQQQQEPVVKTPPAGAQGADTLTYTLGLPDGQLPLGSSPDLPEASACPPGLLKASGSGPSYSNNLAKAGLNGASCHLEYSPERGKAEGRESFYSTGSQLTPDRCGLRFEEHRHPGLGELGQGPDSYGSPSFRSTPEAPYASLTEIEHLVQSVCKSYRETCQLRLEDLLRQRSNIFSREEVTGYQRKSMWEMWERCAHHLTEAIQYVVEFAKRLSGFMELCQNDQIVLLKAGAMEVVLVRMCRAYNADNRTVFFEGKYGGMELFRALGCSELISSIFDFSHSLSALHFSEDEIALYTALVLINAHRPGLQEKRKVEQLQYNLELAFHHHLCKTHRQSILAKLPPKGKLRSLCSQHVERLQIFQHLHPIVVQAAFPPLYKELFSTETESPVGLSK
The experiment can be described thus: Binding Assay : Compounds described herein were tested for ability to bind to RORγ in a cell-free competition assay with commercially available radio-ligand (RL), 25-hydroxy [26,27-3H]-cholesterol (PerkinElmer, Cat. #NET674250UC), for a ligand binding site on a recombinant RORγ Ligand Binding Domain (LBD) protein expressed as a 6×His-Glutathione-S-Transferase (GST) fusion. The assay was performed in 96-well SPA plates (PerkinElmer, Cat. #1450-401) in 50 mM HEPES buffer, pH 7.4, containing 150 mM NaCl, 5 mM MgCl2, 10% (v/v) glycerol, 2 mM CHAPS, 0.5 mM β-octylglucopyranoside and 5 mM DTT. Tested compounds were dissolved in DMSO, and semi-log (3.162×) serial dilutions of the compounds were prepared in the same solvent. Two μL of the DMSO solutions were mixed with 28 μL of 8.6 nM 25-hydroxy [26,27-3H]-cholesterol and 50 μL of 24 nM RORγ LBD. The plate was shaken at 700 rpm for 20 min and incubated for 10 min at rt, after which 40 μL of poly-Lys YSi SPA beads (PerkinElmer, Cat. #RPNQ0010) were added to achieve […] of the beads per well. The plate was incubated on an orbital shaker for 20 min and then for 10 min without agitation at rt. SPA signal for tritium beta radiation was registered on PerkinElmer Microbeta plate reader. Percent inhibition values were calculated based on the high signal obtained with DMSO control and the low signal observed with 10 μM standard RORγ inverse agonist T0901317 (SigmaAldrich, Cat. #T2320). The percent inhibition vs. concentration data were fit into a four-parameter model, and IC50 values were calculated from the fit as the concentrations corresponding to the inflection points on the dose-response curves.
With `CCS(=O)(=O)c1ccc([C@H](CO)NC(=O)c2ccc3c(c2)nc(C2CC2)n3Cc2cccc3c2OC(F)(F)O3)cc1`, the pKi (commonly −log10 of the Ki, conventionally taken in molar units) was > 7.00.
For `CCS(=O)(=O)c1ccc(CNC(=O)c2ccc3c(c2)nc(C(F)(F)F)n3Cc2cccc3c2OC(F)(F)O3)[n+]([O-])c1` the value was > 7.00.
Regarding `CCS(=O)(=O)c1ccc([C@H](CO)NC(=O)c2ccc3c(c2)nc(C2(F)CCC2)n3Cc2cccc3c2OC(F)(F)O3)cc1`, the pKi was > 7.00.

These data come from ChEMBL document CHEMBL5728092, “Benzimidazole derivatives as modulators of ROR-gamma” (2020).
